What all share (set-up): species or system HIV
The target in one test is gp120SF162 (17b epitope) (Human immunodeficiency virus type 1 group M subtype B, UniProt P19550). The experiment in a line: SPR (Biacore) upregulation of monoclonal antibody 17b binding to Env/compound complex. The conditions noted are these: for upregulation of CD4 inducible epitopes on gp120: FIGS. 4B, 5B, antibody not stated in the legend. The protocol:
(§1) In a second step, each of the 100 structurally identified compounds was screened for its ability to compete with CD4 binding to Env (gp120) as well as its ability to induce the desired conformational change in the HIV Env protein to expose inducible epitopes. Both binding competition and exposure of cryptic epitopes were analyzed using Biacore's SRP systems. (Biacore Inc., Piscataway, N.J.), following the manufacturer's instructions.
(§2) Surface plasmon resonance assays were performed using a BIACORE 3000 optical biosensor system (Biacore AB, Uppsala, Sweden) with simultaneous monitoring of relevant flow cells. To perform the kinetic study of the binding of HIV env to sCD4, sCD4 was immobilized using amine coupling onto CM5 sensor chip to attain 4000 response units. To perform the kinetic study of the binding of HIV env to the monoclonal antibody 17b, antibodies were immobilized using amine coupling onto a CM5 sensor chip to attain 2000 response units. Using PBS buffer (pH 7.4) with 0.05% Tween 20 and 3% DMSO, association was assessed by passing gp120SF162 (GenBank P03378; Sanchez-Pescador et al. (1985) Science, 227(4686): 484-492), with and without various controls or small molecules, over the chip surface at a flow rate of 25 μl/min. The concentration of gp120SMF162 used was 1 uM for all samples. As a negative control, a control surface coupled to 2000 response units of BSA (Pierce) was used. A buffer only control was subtracted from all sensograms. Responses were measured by assessing the maximum RUs (response units) obtained at the peak of the binding curve.
The percentage upregulation of 17b was determined by dividing the peak RU observed for the Env polypeptide/compound complex divided by the peak RU for the Env polypeptide alone.
(§3) Additional candidate small molecules were screened for CD4 binding inhibition and upregulation of CD4 inducible epitopes, e.g., mABs 17b and 48D, by HPLC and BlAcore methods as described in Examples 1 and 4 above. Each of the compounds in Table 5 below was screened three times by both methods using different lots of both gp120 and antibodies. The rounds of screening tests were additionally carried out on different dates.
For orientation: In SPR one partner is held on a chip, and binding of the other changes the refractive index at the surface.

A further test concerns the target T1, gp120 (48D epitope) (Human immunodeficiency virus type 1 group M subtype B, UniProt P19550).
T1 construct: The concentration of gp120SMF162 used was 1 uM for all samples
Description: SPR (Biacore) upregulation of monoclonal antibody 48D binding to Env/compound complex. The conditions noted are these: Example 6 screening; FIG. 6C. The protocol: as §2
Additional candidate small molecules were screened for CD4 binding inhibition and upregulation of CD4 inducible epitopes, e.g., mABs 17b and 48D, by HPLC and BlAcore methods as described in Examples 1 and 4 above. […]

Test [1] concerns the target T2, gp120SF162 (Human immunodeficiency virus type 1 group M subtype B, UniProt P19550). Description: Example 6 screening for CD4 binding inhibition (SEC-HPLC with fluorescently-labelled CD4, and Biacore). The conditions noted are these: three rounds.
Excerpt: as §3
CD4 binding competition was examined in the free solution state by HPLC. Various candidate small molecules were each mixed with gp120SF162 and the resulting solution was incubated for 1 hour at 37° C. Fluorescently-labelled CD4, CD4 488, was then added to each incubated solution, and the resulting mixture was analyzed by size exclusion HPLC (SEC-HPLC), using fluorescent signal detection. The extent of competition with CD4 was determined as follows.
A general note: Size exclusion chromatography separates by hydrodynamic size, large species first.

Test [2] deals with T2, gp120SF162. The experiment in a line: SPR (Biacore) competition: gp120 binding to immobilized sCD4 with and without small molecule. The following applies: FIG. 1, compared to when the small molecule was not present. The method, then: as §1
as §2, with “The concentration of gp120SMF162 used was 1 uM for all samples. As a negative control, a control surface coupled to 2000 response units of BSA (Pierce) was used. A buffer only control was subtracted from all sensograms.” left out

This is an account of results in patent publication US8197819B2, “Env polypeptide complexes and methods of use” (priority 2004, dated 2012).

“Also recorded” adds a separate entry of the source.

As to `COc1ccc2[nH]cc(C(=O)CN3CCN(Cc4ccccc4)CC3)c2c1` [Compound 2, 2-(4-benzylpiperazin-1-yl)-1-(5-methoxy-1H-indol-3-yl)ethanone], the “upregulation of 17b (CD4 inducible epitope on gp120)” value at gp120SF162 (17b epitope) (Example 6 screening, binding to monoclonal antibody 17b) was “upregulation of CD4 inducible epitopes on gp120”. The “upregulation of CD4 inducible epitopes on gp120, binding to monoclonal antibody 48D” value on gp120 (48D epitope) is “upregulation of CD4 inducible epitopes on gp120”. The “inhibition of (competition with) CD4 binding to gp120” value (from here on “inhibition … to gp120”) at gp120SF162 [1] is “non-inhibition of CD4 binding to gp120”.

For `CCOC(=O)C1CCN(C(=O)c2cc3c(C)cc(C)cc3[nH]2)CC1` [Compound 5, ethyl 1-[(4,6-dimethyl-1H-indol-2-yl)carbonyl]piperidine-4-carboxylate], the “inhibition of CD4 binding to Env (Env binding to the CD4 chip)” value at gp120SF162 [2] is recorded as “inhibition of CD4 binding to Env; also recorded: inhibited binding of Env to the CD4 chip”. Besides, the “binding of Env/small molecule complex to monoclonal antibody 17b” value at gp120SF162 (17b epitope) (SPR, FIG. 2, in comparison to Env-sCD4 complexes) was “exhibited enhanced binding to monoclonal antibody 17b”.

Consider `COc1cc(C(=O)N2CCC(c3c[nH]c4ccccc34)CC2)cc(OC)c1OC` [Compound 12, [4-(1H-indol-3-yl)-piperidin-1-yl]-(3,4,5-trimethoxy-phenyl)-methanone], for which, on gp120SF162 (17b epitope) (Example 6 screening), the “upregulation of CD4 inducible epitopes on gp120” value is “absence of upregulation of CD4 inducible epititopes on gp120”. On gp120SF162 [1], the “inhibition … to gp120” value is “inhibition of CD4 binding to gp120”.

Turning to `COc1ccccc1N1CCN(CC(=O)c2c(C)[nH]c3ccccc23)CC1` [Compound 26, 2-[4-(2-Methoxy-phenyl)-piperazin-1-yl]-1-(2-methyl-1H-indol-3-yl)-ethanone], the “upregulation of CD4 inducible epitopes on gp120” value on gp120SF162 (17b epitope) (Example 6 screening) is on record as “upregulation of CD4 inducible epititopes on gp120”. For the same compound, the “inhibition … to gp120” value at gp120SF162 [1] is “inhibition of CD4 binding to gp120”.
